# Laboratory results from patent US12655116B2, “Substituted isophthalic acid diamides” (Bayer Aktiengesellschaft, priority 2020, dated 2026).
# Key:
# [1] = test system: ABUTH; assay: Pre-emergence herbicidal action against ABUTH; format: in vivo, Abutilon theophrasti
# In short: (§1)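 Visual rating at 3 weeks vs untreated pots; 0–100% scale, 100% = plants died. Treatment: aqueous WP/EC spray onto covering soil, 600–800 l/ha, 0.2% wetter, seeds in sandy loam.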
# [2] = test system: POLCO; assay: Pre-emergence herbicidal action against POLCO; format: in vivo, Polygonum convolvulus; settings: dosage 80 g/ha
# In short: as §1
# [3] = test system: VIOTR; assay: Pre-emergence herbicidal action against VIOTR; format: in vivo, Viola tricolor
# In short: as §1
# [4] = test system: PHBPU; assay: Post-emergence herbicidal action against PHBPU; format: in vivo, Pharbitis purpurea
# In short: (§2)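 Weeds in sandy loam soil received a post-emergence spray at the one-leaf stage. Compounds were applied as WP or EC in water, 600 to 800 l/ha, with 0.2% wetting agent. Activity in % was judged visually after roughly 3 weeks against untreated plants.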
# [5] = test system: AMARE; assay: Post-emergence herbicidal action against AMARE; format: in vivo, Amaranthus retroflexus; settings: 20 g/ha, visual assessment about 3 weeks after treatment, 100% = plants have died, 0% = like control plants
# In short: as §2
# [6] = test system: VERPE; assay: Post-emergence herbicidal action against VERPE; format: in vivo, Veronica persica; settings: 20 g/ha
# In short: as §2
# [7] = test system: MATIN; assay: Post-emergence herbicidal action against MATIN; format: in vivo, Matricaria inodora
# In short: as §2
# [8] = test system: MATIN; assay: Pre-emergence herbicidal action against MATIN; format: in vivo, Matricaria inodora
# In short: as §1
# [9] = test system: SETVI; assay: Pre-emergence herbicidal action against SETVI; format: in vivo, Setaria viridis; settings: dosage 80 g/ha
# In short: as §1
# [10] = test system: ECHCG; assay: Pre-emergence herbicidal action against ECHCG; format: in vivo, Echinochloa crus-galli
# In short: as §1
# [11] = test system: VERPE; assay: Pre-emergence herbicidal action against VERPE; format: in vivo, Veronica persica; settings: dosage 80 g/ha
# In short: as §1
# [12] = test system: ECHCG; assay: Post-emergence herbicidal action against ECHCG; format: in vivo, Echinochloa crus-galli
# In short: as §2
# [13] = test system: AVEFA; assay: Post-emergence herbicidal action against AVEFA; format: in vivo, Avena fatua; settings: visual assessment about 3 weeks after treatment, 100% = plants have died, 0% = like control plants
# In short: as §2
# [14] = test system: SETVI; assay: Post-emergence herbicidal action against SETVI; format: in vivo, Setaria viridis; settings: dosage 20 g/ha
# In short: as §2
# [15] = test system: VIOTR; assay: Post-emergence herbicidal action against VIOTR; format: in vivo, Viola tricolor
# In short: as §2
# [16] = test system: AMARE; assay: Pre-emergence herbicidal action against AMARE; format: in vivo, Amaranthus retroflexus
# In short: as §1
# [17] = test system: ALOMY; assay: Post-emergence herbicidal action against ALOMY; format: in vivo, Alopecurus myosuroides; settings: dosage 20 g/ha, visual assessment about 3 weeks after treatment vs untreated controls
# In short: as §2
# [18] = test system: ABUTH; assay: Post-emergence herbicidal action against ABUTH; format: in vivo, Abutilon theophrasti; settings: visual assessment about 3 weeks after treatment vs untreated controls
# In short: as §2
# [19] = test system: ALOMY; assay: Pre-emergence herbicidal action against ALOMY; format: in vivo, Alopecurus myosuroides; settings: pre-emergence
# In short: as §1
# [20] = test system: AVEFA; assay: Pre-emergence herbicidal action against AVEFA; format: in vivo, Avena fatua; settings: 80 g/ha, pre-emergence
# In short: as §1
# [21] = test system: DIGSA; assay: Pre-emergence herbicidal action against DIGSA; format: in vivo, Digitaria sanguinalis
# In short: as §1
# [22] = test system: DIGSA; assay: Post-emergence herbicidal action against DIGSA; format: in vivo, Digitaria sanguinalis; settings: 20 g/ha
# In short: as §2
# [23] = 80 g/ha, scored visually after 3 weeks vs untreated controls (100% = plants have died, 0% = like control plants)
# [24] = dosage 20 g/ha, scored visually after 3 weeks vs untreated controls, 100% = plants have died, 0% = like control plants
# [25] = 20 g/ha, scored visually after 3 weeks vs untreated controls, 100% = plants have died, 0% = like control plants
# [26] = Tripleurospermum inodorum, 504 h, dosage 20 g/ha
smiles,measurement,setting,value
CCn1nnnc1NC(=O)c1ccc(C(F)(F)F)c(C(=O)NC(C)C2CC2)c1SC (stereo not drawn) [Example 2-350],Pre-emergence action against ABUTH (herbicidal activity),[1]; [23],100%
same,Pre-emergence action against ABUTH (herbicidal activity in percent),[1]; [24],100%
same,Pre-emergence action against POLCO in %,[2],100%
same,Pre-emergence action against VIOTR in %,[3]; dosage 20 g/ha,100%
same,Pre-emergence action against VIOTR in %,[3]; dosage 80 g/ha,100%
same,Post-emergence action against PHBPU in %,[4]; dosage 5 g/ha,80%
same,Post-emergence action against PHBPU in %,[4]; dosage 20 g/ha,80%
same,Post-emergence action at 20 g/ha against AMARE in %,[5],100%
same,Post-emergence action against VERPE in %,[6],80%
same,Post-emergence action against MATIN in %,[7]; dosage 5 g/ha,80%
same,Post-emergence action against MATIN in %,[7]; dosage 20 g/ha,90%
same,Pre-emergence action against MATIN in %,[8]; dosage 20 g/ha,100%
same,Pre-emergence action against MATIN in %,[8]; dosage 80 g/ha,100%
same,Pre-emergence action against SETVI in %,[9],100%
same,Pre-emergence action against ECHCG in %,[10]; 20 g/ha,80%
same,Pre-emergence action against ECHCG in %,[10]; 80 g/ha,100%
same,Pre-emergence action against VERPE in %,[11],100%
same,Post-emergence action against ECHCG in %,[12]; dosage 20 g/ha,100%
same,Post-emergence action at 20 g/ha against AVEFA in %,[13]; 20 g/ha,90%
same,Post-emergence action against SETVI in %,[14],100%
same,Post-emergence action against VIOTR in %,[15]; 5 g/ha,100%
same,Post-emergence action against VIOTR in %,[15]; 20 g/ha,100%
same,Pre-emergence action against AMARE in %,[16]; [25],100%
same,Pre-emergence action against AMARE in %,[16]; [23],100%
same,Post-emergence action against ALOMY in %,[17],80%
same,Post-emergence action against ABUTH in %,[18]; dosage 20 g/ha,80%
CCn1nnnc1NC(=O)c1ccc(C(F)(F)F)c(C(=O)NC2CC2)c1SC [Example 2-83],pest or weed control at 80 g/ha,"[19]; Alopecurus myosuroides, 504 h, 80 g/ha, scored visually after 3 weeks vs untreated controls (100% = plants have died, 0% = like control plants)",90%
same,pest or weed control at 20 g/ha,"[19]; Alopecurus myosuroides, 504 h, 20 g/ha, scored visually after 3 weeks, 100% = plants have died, 0% = like control plants",90%
same,pest or weed control at 80 g/ha,"[1]; Abutilon theophrasti, 504 h, 80 g/ha, scored visually after 3 weeks vs untreated controls (100% = plants have died, 0% = like control plants)",100%
same,pest or weed control at 20 g/ha,"[1]; Abutilon theophrasti, 504 h, dosage 20 g/ha, scored visually after 3 weeks vs untreated controls, 100% = plants have died, 0% = like control plants, read-out: Pre-emergence action against ABUTH (herbicidal activity in percent)",100%
same,pest or weed control at 80 g/ha,"[2]; Fallopia convolvulus, 504 h",90%
same,pest or weed control at 80 g/ha,"[3]; Viola tricolor, 504 h, dosage 80 g/ha",100%
same,pest or weed control at 20 g/ha,"[4]; Ipomoea purpurea, 504 h, dosage 20 g/ha",80%
same,pest or weed control at 20 g/ha,"[5]; Amaranthus retroflexus, 504 h",100%
same,pest or weed control at 20 g/ha,"[6]; Veronica persica, 504 h",80%
same,pest or weed control at 5 g/ha,"[7]; Tripleurospermum inodorum, 504 h, dosage 5 g/ha",80%
same,pest or weed control at 20 g/ha,[7]; [26],100%
same,pest or weed control at 20 g/ha,[8]; [26],100%
same,pest or weed control at 80 g/ha,"[8]; Tripleurospermum inodorum, 504 h, dosage 80 g/ha",100%
same,pest or weed control at 80 g/ha,"[9]; Setaria viridis, 504 h",100%
same,pest or weed control at 80 g/ha,"[10]; Echinochloa crus-galli, 504 h, 80 g/ha",90%
same,pest or weed control at 20 g/ha,"[12]; Echinochloa crus-galli, 504 h, dosage 20 g/ha",90%
same,pest or weed control at 20 g/ha,"[13]; Avena fatua, 504 h, 20 g/ha",90%
same,pest or weed control at 20 g/ha,"[14]; Setaria viridis, 504 h",100%
same,pest or weed control at 80 g/ha,"[20]; Avena fatua, 504 h",90%
same,pest or weed control at 5 g/ha,"[15]; Viola tricolor, 504 h, 5 g/ha",80%
same,pest or weed control at 20 g/ha,"[15]; Viola tricolor, 504 h, 20 g/ha",80%
same,pest or weed control at 20 g/ha,"[16]; Amaranthus retroflexus, 504 h, 20 g/ha, scored visually after 3 weeks vs untreated controls, 100% = plants have died, 0% = like control plants",100%
same,pest or weed control at 80 g/ha,"[16]; Amaranthus retroflexus, 504 h, 80 g/ha, scored visually after 3 weeks vs untreated controls, 100% = plants have died, 0% = like control plants",100%
same,pest or weed control at 20 g/ha,"[17]; Alopecurus myosuroides, 504 h",100%
same,pest or weed control at 5 g/ha,"[18]; Abutilon theophrasti, 504 h, dosage 5 g/ha",90%
same,pest or weed control at 20 g/ha,"[18]; Abutilon theophrasti, 504 h, dosage 20 g/ha",90%
CCn1nnnc1NC(=O)c1ccc(C(F)(F)F)c(C(=O)NCC2CC2)c1C [Example 2-28],Pre-emergence action against ALOMY (herbicidal activity),[19]; [23],90%
same,Pre-emergence action against DIGSA in %,[21]; dosage 20 g/ha,100%
same,Pre-emergence action against DIGSA in %,[21]; dosage 80 g/ha,100%
same,Post-emergence action against DIGSA,[22],80%
same,Pre-emergence action against ABUTH (herbicidal activity),[1]; [23],100%
same,Pre-emergence action against ABUTH (herbicidal activity in percent),[1]; [24],100%
same,Pre-emergence action against POLCO in %,[2],90%
same,Pre-emergence action against VIOTR in %,[3]; dosage 20 g/ha,100%
same,Pre-emergence action against VIOTR in %,[3]; dosage 80 g/ha,100%
same,Post-emergence action against PHBPU in %,[4]; dosage 20 g/ha,80%
same,Post-emergence action against MATIN in %,[7]; dosage 20 g/ha,80%
same,Pre-emergence action against MATIN in %,[8]; dosage 20 g/ha,100%
same,Pre-emergence action against MATIN in %,[8]; dosage 80 g/ha,100%
same,Pre-emergence action against SETVI in %,[9],100%
same,Pre-emergence action against ECHCG in %,[10]; 20 g/ha,80%
same,Pre-emergence action against ECHCG in %,[10]; 80 g/ha,100%
same,Pre-emergence action against VERPE in %,[11],80%
same,Post-emergence action against ECHCG in %,[12]; dosage 5 g/ha,80%
same,Post-emergence action against ECHCG in %,[12]; dosage 20 g/ha,80%
same,Post-emergence action at 5 g/ha against AVEFA in %,[13]; 5 g/ha,80%
same,Post-emergence action at 20 g/ha against AVEFA in %,[13]; 20 g/ha,90%
same,Pre-emergence action against AVEFA in %,[20],90%
same,Pre-emergence action against AMARE in %,[16]; [25],100%
same,Pre-emergence action against AMARE in %,[16]; [23],100%
same,Post-emergence action against ABUTH in %,[18]; dosage 5 g/ha,80%
same,Post-emergence action against ABUTH in %,[18]; dosage 20 g/ha,80%
